Measured values reported in US10308650B2, “Pesticidally active tetracyclic derivatives with sulfur containing substituents” (Syngenta Participations AG, priority 2014, dated 2019).

Columns and labels:
Type in all cases: in vivo
[1] = tested on: Spodoptera littoralis (Egyptian Cotton Leaf Worm); assay: Activity against Spodoptera littoralis (cotton leaf discs, spray); conditions: foliar, 72 h, application rate of 200 ppm, cotton leaf discs, L1 larvae, 3 days after infestation, read-out: control (mortality, anti-feeding effect, growth inhibition)
Experimental: Example B9: Activity Against Spodoptera littoralis (Egyptian Cotton Leaf Worm)
Cotton leaf discs were placed onto agar in 24-well microtiter plates and sprayed with aqueous test solutions prepared from 10,000 ppm DMSO stock solutions. After drying the leaf discs were infested with five L1 larvae. The samples were assessed for mortality, anti-feeding effect, and growth inhibition in comparison to untreated samples 3 days after infestation. Control of Spodoptera littoralis by a test sample is given when at least one of the categories mortality, anti-feedant effect, and growth inhibition is higher than the untreated sample.

[2] = tested on: Tetranychus urticae (Two-Spotted Spider Mite); assay: Activity against Tetranychus urticae: feeding/contact activity; conditions: foliar, 192 h, application rate of 200 ppm, bean leaf discs, mixed population (mobile stages), 8 days after infestation
Experimental: Example B11: Activity Against Tetranychus urticae (Two-Spotted Spider Mite): Feeding/Contact Activity
Bean leaf discs on agar in 24-well microtiter plates were sprayed with aqueous test solutions prepared from 10,000 ppm DMSO stock solutions. After drying the leaf discs were infested with a mite population of mixed ages. The samples were assessed for mortality on mixed population (mobile stages) 8 days after infestation.

[3] = tested on: Bemisia tabaci (Cotton White Fly); assay: Activity against Bemisia tabaci: feeding/contact activity; conditions: foliar, 144 h, application rate of 200 ppm, cotton leaf discs, adult white flies, 6 days after incubation
Experimental: Example B1: Activity Against Bemisia tabaci (Cotton White Fly): Feeding/Contact Activity
Cotton leaf discs were placed on agar in 24-well microtiter plates and sprayed with aqueous test solutions prepared from 10,000 ppm DMSO stock solutions. After drying the leaf discs were infested with adult white flies. The samples were checked for mortality 6 days after incubation.

[4] = tested on: Diabrotica balteata (Corn Root Worm); assay: Activity against Diabrotica balteata; conditions: 96 h, application rate of 200 ppm, maize sprouts, L2 larvae, 4 days after infestation, read-out: effect in at least one of the two categories (mortality or growth inhibition)
Experimental: Example B2: Activity Against Diabrotica balteata (Corn Root Worm)
Maize sprouts placed onto an agar layer in 24-well microtiter plates were treated with aqueous test solutions prepared from 10,000 ppm DMSO stock solutions by spraying. After drying, the plates were infested with L2 larvae (6 to 10 per well). The samples were assessed for mortality and growth inhibition in comparison to untreated samples 4 days after infestation.

[5] = tested on: Euschistus heros (Neotropical Brown Stink Bug); assay: Activity against Euschistus heros; conditions: 120 h, application rate of 200 ppm, soybean leaves, N2 nymphs, 5 days after infestation, read-out: effect in at least one of the two categories (mortality or growth inhibition)
Experimental: Example B3: Activity Against Euschistus heros (Neotropical Brown Stink Bug)
Soybean leaves on agar in 24-well microtiter plates were sprayed with aqueous test solutions prepared from 10,000 ppm DMSO stock solutions. After drying the leaves were infested with N2 nymphs. The samples were assessed for mortality and growth inhibition in comparison to untreated samples 5 days after infestation.

[6] = tested on: Frankliniella occidentalis (Western Flower Thrips); assay: Activity against Frankliniella occidentalis: feeding/contact activity; conditions: foliar, 168 h, application rate of 200 ppm, sunflower leaf discs, population of mixed ages, 7 days after infestation
Experimental: Example B4: Activity Against Frankliniella occidentalis (Western Flower Thrips): Feeding/Contact Activity
(§1) Sunflower leaf discs were placed on agar in 24-well microtiter plates and sprayed with aqueous test solutions prepared from 10,000 DMSO stock solutions. After drying the leaf discs were infested with a Frankliniella population of mixed ages. The samples were assessed for mortality 7 days after infestation.

[7] = tested on: Myzus persicae (Green Peach Aphid); assay: Activity against Myzus persicae: feeding/contact activity; conditions: foliar, 144 h, application rate of 200 ppm, sunflower leaf discs, aphid population of mixed ages, 6 days after infestation, read-out: mortality
Experimental: Example B5: Activity Against Myzus persicae (Green Peach Aphid): Feeding/Contact Activity
Sunflower leaf discs were placed onto agar in a 24-well microtiter plate and sprayed with aqueous test solutions prepared from 10,000 ppm DMSO stock solutions. After drying, the leaf discs were infested with an aphid population of mixed ages. The samples were assessed for mortality 6 days after infestation.

[8] = tested on: Myzus persicae (Green Peach Aphid); assay: Activity against Myzus persicae: systemic activity; conditions: 144 h, test rate of 24 ppm, roots of infested pea seedlings in test solution, 6 days, read-out: mortality
Experimental: Example B6: Activity Against Myzus persicae (Green Peach Aphid). Systemic Activity
Roots of pea seedlings infested with an aphid population of mixed ages were placed directly into aqueous test solutions prepared from 10,000 DMSO stock solutions. The samples were assessed for mortality 6 days after placing seedlings into test solutions.

[9] = tested on: Plutella xylostella (Diamond Back Moth); assay: Activity against Plutella xylostella; conditions: 120 h, application rate of 200 ppm, artificial diet, L2 larvae, 5 days after infestation, read-out: effect in at least one of the two categories (mortality or growth inhibition)
Experimental: Example B8: Activity Against Plutella xylostella (Diamond Back Moth)
24-well microtiter plates with artificial diet were treated with aqueous test solutions prepared from 10,000 ppm DMSO stock solutions by pipetting. After drying, the plates were infested with L2 larvae (10 to 15 per well). The samples were assessed for mortality and growth inhibition in comparison to untreated samples 5 days after infestation.

[10] = tested on: Spodoptera littoralis (Egyptian Cotton Leaf Worm); assay: Activity against Spodoptera littoralis (lettuce, uptake by the roots from agar); conditions: 144 h, test rate of 12.5 ppm, lettuce grown on treated agar, Spodoptera eggs, 6 days after infestation, read-out: effect in at least one of the three categories (mortality, anti-feeding, or growth inhibition)
From the text: Example B10: Activity Against Spodoptera littoralis (Egyptian Cotton Leaf Worm)
Test compounds were applied by pipette from 10,000 ppm DMSO stock solutions into 24-well plates and mixed with agar. Lettuce seeds were placed onto the agar and the multi well plate was closed by another plate which contained also agar. After 7 days the compound was absorbed by the roots and the lettuce grew into the lid plate. The lettuce leaves were then cut off into the lid plate. Spodoptera eggs were pipetted through a plastic stencil onto a humid gel blotting paper and the lid plate was closed with it. The samples were assessed for mortality, anti-feedant effect and growth inhibition in comparison to untreated samples 6 days after infestation.

[11] = tested on: Thrips tabaci (Onion Thrips); assay: Activity against Thrips tabaci: feeding/contact activity; conditions: foliar, 144 h, application rate of 200 ppm, sunflower leaf discs, thrips population of mixed ages, 6 days after infestation
Experimental: Example B12: Activity Against Thrips tabaci (Onion Thrips) Feeding/Contact Activity
as §1, with “10,000 ppm” for “10,000”, “thrips” for “Frankliniella”, “6” for “7”

[12] = tested on: Aedes aegypti (Yellow Fever Mosquito); assay: Activity against Aedes aegypti; conditions: 200 ppm in ethanol, dry deposit in 12 well plates, adult females, after 48 h and/or 24 h
Experimental: Example B13: Activity Against Aedes aegypti (Yellow Fever Mosquito)
Test solutions, at an application rate of 200 ppm in ethanol, were applied to 12 well tissue culture plates. Once the deposits were dry, five, two to five day old adult female Aedes aegypti were added to each well, and sustained with a 10% sucrose solution in a cotton wool plug. Assessment of knockdown was made one hour after introduction, and mortality was assessed at 24 and 48 hours after introduction.

[13] = tested on: Myzus persicae (Green Peach Aphid); assay: Activity against Myzus persicae: intrinsic activity; conditions: 120 h, test rate of 12 ppm, sucrose solution under Parafilm, 5 days after infestation, read-out: mortality
From the text: Example B7: Activity Against Myzus persicae (Green Peach Aphid). Intrinsic Activity
Test compounds prepared from 10,000 ppm DMSO stock solutions were applied by pipette into 24-well microtiter plates and mixed with sucrose solution. The plates were closed with a stretched Parafilm. A plastic stencil with 24 holes was placed onto the plate and infested pea seedlings were placed directly on the Parafilm. The infested plate was closed with a gel blotting paper and another plastic stencil and then turned upside down. The samples were assessed for mortality 5 days after infestation.

CCS(=O)(=O)c1cc2nc(C(F)(F)F)[nH]c2cc1-c1nc2cc(C(F)(F)F)ncc2n1C [Compound A7, 2-[6-ethylsulfonyl-2-(trifluoromethyl)-3H-benzimidazol-5-yl]-3-methyl-6-(trifluoromethyl)imidazo[4,5-c]pyridine]
≥ 80%: mortality at 200 ppm [1] | mortality at 200 ppm [2]

CCS(=O)(=O)c1cc2c(cc1-c1nc3cc(C(F)(F)F)ncc3n1C)nc(C(F)(F)F)n2C [Compound A9, 2-[6-ethylsulfonyl-1-methyl-2-(trifluoromethyl)benzimidazol-5-yl]-3-methyl-6-(trifluoromethyl)imidazo[4,5-c]pyridine]
≥ 80%: mortality at 200 ppm [3] | percent effect (mortality or growth inhibition) at 200 ppm [4] | percent effect (mortality or growth inhibition) at 200 ppm [5] | mortality at 200 ppm [6] | mortality at 200 ppm [7] | mortality at 24 ppm [8] | percent effect (mortality or growth inhibition) at 200 ppm [9] | mortality at 200 ppm [1] | percent effect (mortality, anti-feeding or growth inhibition) at 12.5 ppm [10] | mortality at 200 ppm [11] | pest or weed control at 200 ppm [12]

CCS(=O)(=O)c1cc2ccccc2cc1-c1nc2cc(C(F)(F)F)ncc2n1C [Compound A24, 2-(3-ethylsulfonyl-2-naphthyl)-3-methyl-6-(trifluoromethyl)imidazo[4,5-c]pyridine]
≥ 80%: percent effect (mortality or growth inhibition) at 200 ppm [4] | percent effect (mortality or growth inhibition) at 200 ppm [5] | mortality at 200 ppm [7] | mortality at 12 ppm [13] | percent effect (mortality or growth inhibition) at 200 ppm [9] | mortality at 200 ppm [1] | percent effect (mortality, anti-feeding or growth inhibition) at 12.5 ppm [10] | mortality at 200 ppm [2] | pest or weed control at 200 ppm [12]

CCS(=O)(=O)c1cc2nc(C(F)(F)F)sc2cc1-c1nc2cc(C(F)(F)F)ncc2n1C [Compound A31, 5-ethylsulfonyl-6-[3-methyl-6-(trifluoromethyl)imidazo[4,5-c]pyridin-2-yl]-2-(trifluoromethyl)-1,3-benzothiazole]
≥ 80%: mortality at 200 ppm [3] | percent effect (mortality or growth inhibition) at 200 ppm [4] | percent effect (mortality or growth inhibition) at 200 ppm [5] | mortality at 200 ppm [6] | mortality at 200 ppm [7] | percent effect (mortality or growth inhibition) at 200 ppm [9] | mortality at 200 ppm [1] | percent effect (mortality, anti-feeding or growth inhibition) at 12.5 ppm [10] | pest or weed control at 200 ppm [12]

CCS(=O)(=O)c1cc2nc(C(F)(F)F)n(C)c2nc1-c1nc2cc(C(F)(F)F)ncc2n1C [Compound A32, 6-ethylsulfonyl-3-methyl-5-[3-methyl-6-(trifluoromethyl)imidazo[4,5-c]pyridin-2-yl]-2-(trifluoromethyl)imidazo[4,5-b]pyridine]
≥ 80%: mortality at 200 ppm [3] | percent effect (mortality or growth inhibition) at 200 ppm [4] | percent effect (mortality or growth inhibition) at 200 ppm [5] | mortality at 200 ppm [7] | mortality at 24 ppm [8] | percent effect (mortality or growth inhibition) at 200 ppm [9] | mortality at 200 ppm [1] | percent effect (mortality, anti-feeding or growth inhibition) at 12.5 ppm [10] | mortality at 200 ppm [11] | pest or weed control at 200 ppm [12]

CCS(=O)(=O)c1cc2c(C3CC3)cccc2nc1-c1nc2cc(C(F)(F)F)ncc2n1C [Compound A43, 5-cyclopropyl-3-ethylsulfonyl-2-[3-methyl-6-(trifluoromethyl)imidazo[4,5-c]pyridin-2-yl]quinoline]
≥ 80%: percent effect (mortality or growth inhibition) at 200 ppm [4] | percent effect (mortality or growth inhibition) at 200 ppm [5] | mortality at 200 ppm [7] | percent effect (mortality or growth inhibition) at 200 ppm [9] | mortality at 200 ppm [1] | percent effect (mortality, anti-feeding or growth inhibition) at 12.5 ppm [10] | mortality at 200 ppm [2]

CCS(=O)(=O)c1cc2c(nc1-c1nc3cc(C(F)(F)F)ncc3n1C)CC(C)(C)O2 [Compound A59, 6-ethylsulfonyl-2,2-dimethyl-5-[3-methyl-6-(trifluoromethyl)imidazo[4,5-c]pyridin-2-yl]-3H-furo[3,2-b]pyridine]
≥ 80%: mortality at 200 ppm [3] | percent effect (mortality or growth inhibition) at 200 ppm [4] | percent effect (mortality or growth inhibition) at 200 ppm [5] | mortality at 200 ppm [7] | mortality at 24 ppm [8] | percent effect (mortality or growth inhibition) at 200 ppm [9] | mortality at 200 ppm [1] | percent effect (mortality, anti-feeding or growth inhibition) at 12.5 ppm [10] | mortality at 200 ppm [11]
